{
  "source": "paper PMC11171525",
  "about": "(Cells, 2024)",
  "key": {"PpCM1": {"test_system": "PpCM1", "assay": "CM activity assay, recombinant PpCM1 (disappearance of chorismate at 274 nm)", "format": "biochemical, Pinus pinaster", "settings": "for impact on activity (activation or inhibition), effector screening: threshold […] (Figure S2)", "method": "(§1) Similarly, the effect on CM activity of decreasing concentrations of the amino acids Phe, Tyr, and Trp was determined.\n(§2) To study their catalytic properties, P. pinaster PpCM1 and PpCM2 were functionally expressed in E. coli, including N-terminal His-tags, lacking the predicted chloroplast signal peptides, and were subsequently purified with Ni^2+-affinity chromatography."}, "PpCM2": {"test_system": "PpCM2", "assay": "CM activity assay, recombinant PpCM2 (disappearance of chorismate at 274 nm)", "format": "biochemical, Pinus pinaster", "settings": "for impact on activity (activation or inhibition), effector screening: threshold […] (Figure S2)", "method": "as §1, §2"}, "CMs from mosses": {"test_system": "CMs from mosses", "settings": "substrate chorismate; ref [30]; cited from earlier work"}, "CMs from lycophytes": {"test_system": "CMs from lycophytes", "settings": "substrate chorismate; ref [30]; cited from earlier work"}, "[1]": {"settings": "2 mM amino acid, 1 mM chorismate"}, "[2]": {"settings": "inhibition of CM activity by Phe, read-out: EC50 (Phe)"}, "[3]": {"settings": "activation of CM activity by Trp, read-out: EC50 (Trp)"}, "[4]": {"settings": "substrate chorismate, 50 mM Tris pH 8, 30 °C"}, "[5]": {"settings": "substrate chorismate, turnover rate"}},
  "note": "Read-outs that look alike come from different tables or passages of the source.",
  "data": [
    {"smiles": "N[C@@H](Cc1ccccc1)C(=O)O", "note": "[Phe, phenylalanine]", "values": [
      {"measurement": "reduction in activity compared to controls", "setting": "PpCM1; [1]", "result": 9.6, "unit": "fold"},
      {"measurement": "impact on activity (activation or inhibition), effector screening", "setting": "PpCM1; 2 mM amino acid", "result": "> 1.5", "unit": "fold"},
      {"measurement": "EC50", "setting": "PpCM1; [2]", "result": 36, "unit": "µM"},
      {"measurement": "reduction in activity compared to controls", "setting": "PpCM2; [1]", "result": 3, "unit": "fold"},
      {"measurement": "impact on activity (activation or inhibition), effector screening", "setting": "PpCM2; 2 mM amino acid", "result": "> 1.5", "unit": "fold"},
      {"measurement": "retained activity", "setting": "PpCM2; in the presence of 2 mM Phe", "result": "30–35%"},
      {"measurement": "EC50", "setting": "PpCM2; [2]", "result": 88, "unit": "µM"}
    ]},
    {"smiles": "N[C@@H](Cc1c[nH]c2ccccc12)C(=O)O", "note": "[Trp, tryptophan]", "values": [
      {"measurement": "increase in activity", "setting": "PpCM1; [1]", "result": 3.1, "unit": "fold"},
      {"measurement": "impact on activity (activation or inhibition), effector screening", "setting": "PpCM1; 2 mM amino acid", "result": "> 1.5", "unit": "fold"},
      {"measurement": "EC50", "setting": "PpCM1; [3]", "result": "~0.1", "unit": "µM"},
      {"measurement": "increase in activity", "setting": "PpCM2; [1]", "result": 1.7, "unit": "fold"},
      {"measurement": "impact on activity (activation or inhibition), effector screening", "setting": "PpCM2; 2 mM amino acid", "result": "> 1.5", "unit": "fold"},
      {"measurement": "EC50", "setting": "PpCM2; [3]", "result": "~0.1", "unit": "µM"}
    ]},
    {"smiles": "C=C(O[C@@H]1C=C(C(=O)O)C=C[C@H]1O)C(=O)O", "note": "[chorismate]", "values": [
      {"measurement": "Km", "setting": "PpCM1; [4]", "result": 1600, "unit": "µM"},
      {"measurement": "Kcat", "setting": "PpCM1; [5]", "result": 29.4, "unit": "s⁻¹"},
      {"measurement": "Km", "setting": "PpCM2; [4]", "result": 1700, "unit": "µM"},
      {"measurement": "Kcat", "setting": "PpCM2; [5]", "result": 35, "unit": "s⁻¹"},
      {"measurement": "Kcat", "setting": "CMs from mosses", "result": "19.5 to 20.7", "unit": "s⁻¹"},
      {"measurement": "Kcat", "setting": "CMs from lycophytes", "result": 18.8, "unit": "s⁻¹"}
    ]},
    {"smiles": "N[C@@H](Cc1ccc(O)cc1)C(=O)O", "note": "[Tyr, tyrosine]", "values": [
      {"measurement": "reduction in activity compared to controls", "setting": "PpCM1; [1]", "result": 11.4, "unit": "fold"},
      {"measurement": "impact on activity (activation or inhibition), effector screening", "setting": "PpCM1; 2 mM amino acid", "result": "> 1.5", "unit": "fold"},
      {"measurement": "reduction in activity compared to controls", "setting": "PpCM2; [1]", "result": 10.1, "unit": "fold"},
      {"measurement": "impact on activity (activation or inhibition), effector screening", "setting": "PpCM2; 2 mM amino acid", "result": "> 1.5", "unit": "fold"}
    ]}
  ]
}
